How the values were obtained:
[1] = test system: CQ-resistant (W2 clone) strain of P. falciparum; assay: In vitro antimalarial activity, CQ-resistant strain; assay type: cell-based, Plasmodium falciparum; settings: for IC50: Plasmodium falciparum, CQ-resistant W2 clone, read-out: P. falciparum (W2 Clone) IC50; for P. falciparum (W2 Clone) S.I.: selectivity index = IC50 cytotoxicity to Vero cells / IC50 antimalarial
Description: (§1) Med. Chem. 2005, 13, 4458; Khan, I. A. Lipids 2004, 37, 169].

VERO cells = assay: In vitro cytotoxicity to mammalian cells, VERO; assay type: cell-based; settings: for IC50: Chlorocebus sabaeus, Vero, in vitro cytotoxicity to mammalian cells; for toxicity to cell lines: all the three cell lines (VERO, LLC-PK-1, and HepG2)
Description: as §1

LLC-PK-1 cells = assay: In vitro cytotoxicity to mammalian cells, LLC-PK-1; assay type: cell-based; settings: Sus scrofa, LLC-PK1
Description: as §1

HepG2 cells = assay: In vitro cytotoxicity to mammalian cells, HepG2; assay type: cell-based; settings: Homo sapiens
Description: as §1

[2] = test system: CQ-sensitive (D6 clone) strain of P. falciparum; assay: In vitro antimalarial activity, CQ-sensitive strain; assay type: cell-based, Plasmodium falciparum; settings: for IC50: Plasmodium falciparum, CQ-sensitive D6 clone, read-out: P. falciparum (D6 Clone) IC50; for P. falciparum (D6 Clone) S.I.: selectivity index = IC50 cytotoxicity to Vero cells / IC50 antimalarial; for selectivity index of antimalarial activity: ratio of IC50 for cytotoxicity to Vero cells and IC50 for antimalarial activity; for activity fold higher than artemisinin: CQ-sensitive strain
Description: as §1

parasitemia = assay: In-vivo antimalarial activity in mice; settings: mice; for parasitemia suppression / % Parasitemia suppression Day 5: day 5; for parasitemia suppression / survival rate / apparent toxicity: 30 mg/kg for 3 days post infection; for survival rate / Survival (animals that survived day 28/total animals in group): day 28; for Cure (number of mice without parasitemia till day 28 post-infection) / MST (mean survival time) / Remarks (toxicity) / % Parasitemia suppression Day 5 / % Parasitemia suppression Day 7 / Survival (animals that survived day 28/total animals in group) / Day of Death: PO; for Day of Death: per animal
[3] = 3.3 mg/kg × 3 days post-infection
[4] = 10 mg/kg × 3 days post-infection
[5] = 30 mg/kg × 3 days post-infection

Work on `Cc1cc(NCCNc2ccnc3cc(Cl)ccc23)nc(N2CCCCC2)n1` [12a, N-(7-chloro-quinolin-4-yl)-N′-(6-methyl-2-piperidin-1-yl-pyrimidin-4-yl)-ethane-1,2-diamine] yielded a melting point of 177 to 179 °C.
In the case of `Cc1cc(NCCCCNc2ccnc3cc(Cl)ccc23)nc(N2CCCCC2)n1` [12c, N-(7-Chloro-quinolin-4-yl)-N′-(6-methyl-2-piperidin-1-yl-pyrimidin-4-yl)-butane-1,4-diamine], the IC50 [1] is reported as 0.082 µM, the “P. falciparum (W2 Clone) S.I.” value [1] is reported as “(>730)” and the IC50 (VERO cells) is reported as over 60 µM. The IC50 (LLC-PK-1 cells) was over 60 µM, the melting point was 187 to 189 °C and the IC50 (HepG2 cells) was over 60 µM. For the same molecule, the IC50 [2] was 0.021 µM and the “P. falciparum (D6 Clone) S.I.” value [2] was “(>2857)”.
For `Cc1cc(NCCCCCCNc2ccnc3cc(Cl)ccc23)nc(N2CCCCC2)n1` [12d, N-(7-Chloro-quinolin-4-yl)-N′-(6-methyl-2-piperidin-1-yl-pyrimidin-4-yl)-hexane-1,6-diamine], the IC50 [1] was 0.128 µM, the “P. falciparum (W2 Clone) S.I.” value [1] was 73.4 and the IC50 (VERO cells) was 9.4 µM. For the same molecule, the “toxicity to cell lines” value (VERO cells) was “showed toxicity”, the IC50 (LLC-PK-1 cells) was under 6.7 µM and the melting point was 97 to 99 °C. The IC50 (HepG2 cells) was under 6.7 µM, the IC50 [2] was 0.066 µM and the “selectivity index of antimalarial activity” value [2] was “considerably high”. The “P. falciparum (D6 Clone) S.I.” value [2] was 142.4.
For `Cc1cc(NCCNc2ccnc3cc(Cl)ccc23)nc(N2CCOCC2)n1` [12e, N-(7-Chloro-quinolin-4-yl)-N′-(6-methyl-2-morpholin-4-yl-pyrimidin-4-yl)-ethane-1,2-diamine], the IC50 [1] was 0.12 µM, the “P. falciparum (W2 Clone) S.I.” value [1] was “(>500)” and the IC50 (VERO cells) was over 60 µM. The IC50 (LLC-PK-1 cells) was over 60 µM, the melting point was 165 to 167 °C and the IC50 (HepG2 cells) was over 60 µM. The IC50 [2] was 0.025 µM and the “P. falciparum (D6 Clone) S.I.” value [2] was “(>2400)”.
With `Cc1cc(NCCCNc2ccnc3cc(Cl)ccc23)nc(N2CCOCC2)n1` [12f, N-(7-Chloro-quinolin-4-yl)-N′-(6-methyl-2-morpholin-4-yl-pyrimidin-4-yl)-propane-1,3-diamine] the IC50 [1] was 0.058 µM, the “P. falciparum (W2 Clone) S.I.” value [1] was “(>1034)” and the IC50 (VERO cells) was over 60 µM. It also gave an IC50 (LLC-PK-1 cells) of 35.1 µM, a melting point of 165 to 167 °C and an IC50 (HepG2 cells) of 26.1 µM. For the same molecule, the IC50 [2] was 0.022 µM and the “P. falciparum (D6 Clone) S.I.” value [2] was “(>2727)”.
Molecule `Cc1cc(NCCCCNc2ccnc3cc(Cl)ccc23)nc(N2CCOCC2)n1` [12g, N-(7-Chloro-quinolin-4-yl)-N′-(6-methyl-2-morpholin-4-yl-pyrimidin-4-yl)-butane-1,4-diamine] has a melting point of 214 to 216 °C.
For `Cc1cc(NCCCCCCNc2ccnc3cc(Cl)ccc23)nc(N2CCOCC2)n1` [12h, N-(7-Chloro-quinolin-4-yl)-N′-(6-methyl-2-morpholin-4-yl-pyrimidin-4-yl)-hexane-1,6-diamine], the IC50 [1] was 0.12 µM, the “P. falciparum (W2 Clone) S.I.” value [1] was 142.5 and the IC50 (VERO cells) was 17.1 µM. The “toxicity to cell lines” value (VERO cells) was “showed toxicity”, the IC50 (LLC-PK-1 cells) was 9.8 µM and the melting point was 107 to 109 °C. For the same molecule, the IC50 (HepG2 cells) was under 6.7 µM, the IC50 [2] was 0.041 µM and the “selectivity index of antimalarial activity” value [2] was “considerably high”. The “P. falciparum (D6 Clone) S.I.” value [2] was 417.0.
For `Cc1cc(NCCNc2ccnc3cc(Cl)ccc23)nc(N2CCN(C)CC2)n1` [12i, N-(7-Chloro-quinolin-4-yl)-N′-[6-methyl-2-(4-methyl-piperazin-1-yl)-pyrimidin-4-yl]-ethane-1,2-diamine], the IC50 [1] was 0.046 µM, the “P. falciparum (W2 Clone) S.I.” value [1] was “(>1304)” and the IC50 (VERO cells) was over 60 µM. For the same molecule, the IC50 (LLC-PK-1 cells) was over 60 µM, the IC50 (HepG2 cells) was over 60 µM and the “activity fold higher than artemisinin” value [2] was 2 fold. The IC50 [2] was 0.006 µM, the “P. falciparum (D6 Clone) S.I.” value [2] was “(>10000)” and the parasitemia suppression (parasitemia) was 100%. For the same molecule, the survival rate (parasitemia) was 5/5, the apparent toxicity (parasitemia) was “No apparent toxicity” and the “Cure (number of mice without parasitemia till day 28 post-infection)” value (parasitemia; [3]) was 0/5. The “MST (mean survival time)” value (parasitemia; [3]) was 19.2 days, the “Remarks (toxicity)” value (parasitemia; [3]) was “No apparent” and the “% Parasitemia suppression Day 5” value (parasitemia; [3]) was 23.52%. For the same molecule, the “% Parasitemia suppression Day 7” value (parasitemia; [3]) was 35.21%, the “Survival (animals that survived day 28/total animals in group)” value (parasitemia; [3]) was 1/5 and the “Day of Death” value (parasitemia; [3]) was 21/28/21/13/13. For the same molecule, the “Cure (number of mice without parasitemia till day 28 post-infection)” value (parasitemia; [4]) was 0/5, the “MST (mean survival time)” value (parasitemia; [4]) was 21.4 days and the “Remarks (toxicity)” value (parasitemia; [4]) was “No apparent”. The “% Parasitemia suppression Day 5” value (parasitemia; [4]) was 97.03%, the “% Parasitemia suppression Day 7” value (parasitemia; [4]) was 2.03% and the “Survival (animals that survived day 28/total animals in group)” value (parasitemia; [4]) was 0/5. For the same molecule, the “Day of Death” value (parasitemia; [4]) was 21/22/22/21/21, the “Cure (number of mice without parasitemia till day 28 post-infection)” value (parasitemia; [5]) was 4/5 and the “MST (mean survival time)” value (parasitemia; [5]) was 28 days. For the same molecule, the “Remarks (toxicity)” value (parasitemia; [5]) was “No apparent”, the “% Parasitemia suppression Day 5” value (parasitemia; [5]) was 100.00% and the “% Parasitemia suppression Day 7” value (parasitemia; [5]) was 100.00%. For the same molecule, the “Survival (animals that survived day 28/total animals in group)” value (parasitemia; [5]) was 5/5 and the “Day of Death” value (parasitemia; [5]) was 28/28/28/28/28.
With `Cc1cc(NCCCNc2ccnc3cc(Cl)ccc23)nc(N2CCN(C)CC2)n1` [12j, N-(7-Chloro-quinolin-4-yl)-N′-[6-methyl-2-(4-methyl-piperazin-1-yl)-pyrimidin-4-yl]-propane-1,3-diamine] the IC50 [1] was 0.063 µM, the “P. falciparum (W2 Clone) S.I.” value [1] was “(>952)” and the IC50 (VERO cells) was over 60 µM. The IC50 (LLC-PK-1 cells) was 35.2 µM, the melting point was 176 to 178 °C and the IC50 (HepG2 cells) was 25.8 µM. For the same molecule, the “activity fold higher than artemisinin” value [2] was 2 fold, the IC50 [2] was 0.007 µM and the “P. falciparum (D6 Clone) S.I.” value [2] was “(>8571)”.
In the case of `Cc1cc(NCCCCNc2ccnc3cc(Cl)ccc23)nc(N2CCN(C)CC2)n1` [12k, N-(7-Chloro-quinolin-4-yl)-N′-[6-methyl-2-(4-methyl-piperazin-1-yl)-pyrimidin-4-yl]-butane-1,4-diamine], the IC50 [1] is reported as 0.021 µM, the “P. falciparum (W2 Clone) S.I.” value [1] is reported as “(>2857)” and the IC50 (VERO cells) is reported as over 60 µM. For the same molecule, the IC50 (LLC-PK-1 cells) was 34 µM, the melting point was 183 to 185 °C and the IC50 (HepG2 cells) was 27.2 µM. For the same molecule, the IC50 [2] was 0.022 µM and the “P. falciparum (D6 Clone) S.I.” value [2] was “(>2727)”.
For `CCN1CCN(c2nc(C)cc(NCCCNc3ccnc4cc(Cl)ccc34)n2)CC1` [12m, N-(7-Chloro-quinolin-4-yl)-N′-[2-(4-ethyl-piperazin-1-yl)-6-methyl-pyrimidin-4-yl]-propane-1,3-diamine], the IC50 [1] was 0.061 µM, the “P. falciparum (W2 Clone) S.I.” value [1] was “(>983)” and the IC50 (VERO cells) was over 60 µM. The IC50 (LLC-PK-1 cells) was over 60 µM, the IC50 (HepG2 cells) was over 60 µM and the “activity fold higher than artemisinin” value [2] was 2 fold. The IC50 [2] was 0.006 µM, the “P. falciparum (D6 Clone) S.I.” value [2] was “(>10000)” and the parasitemia suppression (parasitemia) was 100%. The survival rate (parasitemia) was 4/5, the apparent toxicity (parasitemia) was “No apparent toxicity” and the “Cure (number of mice without parasitemia till day 28 post-infection)” value (parasitemia; [3]) was 0/5. For the same molecule, the “MST (mean survival time)” value (parasitemia; [3]) was 20.2 days, the “Remarks (toxicity)” value (parasitemia; [3]) was “No apparent” and the “% Parasitemia suppression Day 5” value (parasitemia; [3]) was 20.12%. The “% Parasitemia suppression Day 7” value (parasitemia; [3]) was 19.09%, the “Survival (animals that survived day 28/total animals in group)” value (parasitemia; [3]) was 0/5 and the “Day of Death” value (parasitemia; [3]) was 17/21/21/21/21. For the same molecule, the “Cure (number of mice without parasitemia till day 28 post-infection)” value (parasitemia; [4]) was 0/5, the “MST (mean survival time)” value (parasitemia; [4]) was 15.2 days and the “Remarks (toxicity)” value (parasitemia; [4]) was “No apparent”. For the same molecule, the “% Parasitemia suppression Day 5” value (parasitemia; [4]) was 73.89%, the “% Parasitemia suppression Day 7” value (parasitemia; [4]) was 27.14% and the “Survival (animals that survived day 28/total animals in group)” value (parasitemia; [4]) was 0/5. The “Day of Death” value (parasitemia; [4]) was 7/21/20/7/21, the “Cure (number of mice without parasitemia till day 28 post-infection)” value (parasitemia; [5]) was 1/5 and the “MST (mean survival time)” value (parasitemia; [5]) was 27.2 days. For the same molecule, the “Remarks (toxicity)” value (parasitemia; [5]) was “No apparent”, the “% Parasitemia suppression Day 5” value (parasitemia; [5]) was 100.00% and the “% Parasitemia suppression Day 7” value (parasitemia; [5]) was 100.00%. For the same molecule, the “Survival (animals that survived day 28/total animals in group)” value (parasitemia; [5]) was 4/5 and the “Day of Death” value (parasitemia; [5]) was 28/28/28/28/24.

— US11026943B2, “Aminoquinoline derivatives and uses thereof” (UNIVERSITY OF DELHI, priority 2012, dated 2021)
